Source: ChEMBL document CHEMBL1201862, “PubChem BioAssay data set” (2004)
Several values for one entry are separate records, joined by “and”; a condition that tells them apart may be missing. Equal values may be shown once.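 Tested at 5 concentrations; 48 h exposure; 96-well plates; endpoints linearly interpolated, else capped at highest concentration. The concentration for 50% growth inhibition is given as GI50.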 Activity calls are given as the source filed them. No stated cut-off is given here; in the data, active = GI50 up to about 1.1 µM and inactive = higher.

How the values were obtained:
Experiment in all cases: NCI-60 cell line screen, 48 h
TK-10 = test system: TK-10
HL-60 = test system: HL-60
HOP-62 = test system: HOP-62
OVCAR-3 = test system: OVCAR-3
786-0 = test system: 786-0
KM12 = test system: KM12
IGROV-1 = test system: IGROV-1
LOX IMVI = test system: LOX IMVI
OVCAR-8 = test system: OVCAR-8
HCC 2998 = test system: HCC 2998
NCI-H23 = test system: NCI-H23
OVCAR-5 = test system: OVCAR-5
CAKI-1 = test system: CAKI-1
HT-29 = test system: HT-29
SK-OV-3 = test system: SK-OV-3
EKVX = test system: EKVX
UACC-62 = test system: UACC-62
RPMI-8226 = test system: RPMI-8226

| Compound | GI50 (TK-10) | GI50 (HL-60) | GI50 (HOP-62) | GI50 (OVCAR-3) | GI50 (786-0) | GI50 (KM12) | GI50 (IGROV-1) | GI50 (LOX IMVI) | GI50 (OVCAR-8) | GI50 (HCC 2998) | GI50 (NCI-H23) | GI50 (OVCAR-5) | GI50 (CAKI-1) | GI50 (HT-29) | GI50 (SK-OV-3) | GI50 (EKVX) | GI50 (UACC-62) | GI50 (RPMI-8226) |
| --- | --- | --- | --- | --- | --- | --- | --- | --- | --- | --- | --- | --- | --- | --- | --- | --- | --- | --- |
| Cc1nc(Nc2ccccc2)sc1C(=O)CC(=O)C(=O)Nc1c(C(C)C)cccc1C(C)C | > 100 µM (inactive) | 67.9 µM (inactive) | 97.7 µM (inactive) | 97.9 µM (inactive) | > 100 µM (inactive) | > 100 µM (inactive) | > 100 µM (inactive) | 43.2 µM (inactive) | > 100 µM (inactive) | > 100 µM (inactive) | 85.5 µM (inactive) | > 100 µM (inactive) | 66.2 µM (inactive) | > 100 µM (inactive) | > 100 µM (inactive) | 19.8 µM (inactive) | 55.6 µM (inactive) | – |
| O=C1CCCC/C1=C/C=C/c1ccccc1 | > 100 µM (inactive) | 25.9 µM (inactive) | – | 66.4 µM (inactive) | > 100 µM (inactive) | 42.2 µM (inactive) | > 100 µM (inactive) | 48.9 µM (inactive) | 84.1 µM (inactive) | > 100 µM (inactive) | 51.4 µM (inactive) | > 100 µM (inactive) | > 100 µM (inactive) | 49.3 µM (inactive) | 55.7 µM (inactive) | – | 52.1 µM (inactive) | 32.5 µM (inactive) |
| CCCCCCCCCCNCCSSCc1ccc(Cl)cc1 | 2.18 µM (inactive) | 1.75 µM (inactive) | – | 1.96 µM (inactive) | 5.71 µM (inactive) | 1.36 µM (inactive) | 2.94 µM (inactive) | 1.92 µM (inactive) | 2.07 µM (inactive) | 1.89 µM (inactive) | – | 1.91 µM (inactive) | 2.18 µM (inactive) | 1.77 µM (inactive) | 3.84 µM (inactive) | 3.06 µM (inactive) | 0.407 µM (active) | – |
| O/N=C1/C(=C/c2ccc(Br)cc2)CCCC1C(NO)c1ccc(Br)cc1 (centres undefined) | 18.3 µM (inactive) | > 100 µM (inactive) | – | 17.4 µM (inactive) | 16.8 µM (inactive) | 19.2 µM (inactive) | 17.1 µM (inactive) | 20.4 µM (inactive) | 16.1 µM (inactive) | – | > 10 µM (inactive) | 11.4 µM (inactive) | – | 18.3 µM (inactive) | 24.7 µM (inactive) | > 10 µM (inactive) | 13.9 µM (inactive) | 17.8 µM (inactive) |
| Nc1nc(NC2C=C(CO)C(O)C2O)c([N+](=O)[O-])c(=O)[nH]1 (centres undefined) | > 100 µM (inactive) | – | > 100 µM (inactive) | > 100 µM (inactive) | > 100 µM (inactive) | > 100 µM (inactive) | > 100 µM (inactive) | > 100 µM (inactive) | > 100 µM (inactive) | > 100 µM (inactive) | > 100 µM (inactive) | > 100 µM (inactive) | > 100 µM (inactive) | > 100 µM (inactive) | > 100 µM (inactive) | > 100 µM (inactive) | > 100 µM (inactive) | – |
| Cc1ccc(C(=O)/C=C/c2ccccc2Cl)cc1 | 21.1 µM (inactive) | 16.4 µM (inactive) | 68.5 µM (inactive) | 17.3 µM (inactive) | 16.2 µM (inactive) | 15.7 µM (inactive) | 18.4 µM (inactive) | – | 15.8 µM (inactive) | 18.5 µM (inactive) | 19 µM (inactive) | 17.1 µM (inactive) | 16.8 µM (inactive) | 15.8 µM (inactive) | 39.4 µM (inactive) | 19.2 µM (inactive) | 14.3 µM (inactive) | 15.8 µM (inactive) |
| COC1=CC(=O)OC(/C=C(C)/C=C/C2=C(C)CCCC2(C)C)C1 (centres undefined) | > 100 µM (inactive) | > 100 µM (inactive) | > 100 µM (inactive) | > 100 µM (inactive) | > 100 µM (inactive) | > 100 µM (inactive) | > 100 µM (inactive) | – | > 100 µM (inactive) | > 100 µM (inactive) | > 100 µM (inactive) | > 100 µM (inactive) | > 100 µM (inactive) | > 100 µM (inactive) | > 100 µM (inactive) | > 100 µM (inactive) | > 100 µM (inactive) | – |
| C[N+](C)(C)CC1CCC(C[N+](C)(C)C)C1=NO (centres undefined) | – | > 100 µM (inactive) | > 100 µM (inactive) | > 100 µM (inactive) | > 100 µM (inactive) | > 100 µM (inactive) | > 100 µM (inactive) | > 100 µM (inactive) | > 100 µM (inactive) | – | > 100 µM (inactive) | – | – | > 100 µM (inactive) | > 100 µM (inactive) | > 100 µM (inactive) | > 100 µM (inactive) | > 100 µM (inactive) |
| Cc1cc(NS(=O)(=O)c2ccc(Nc3c4ccccc4nc4c(C(=O)NCCN(C)C)ccc(Cl)c34)cc2)no1 | 13.9 µM (inactive) | 1.14 µM (inactive) | 4.57 µM (inactive) | 11.7 µM (inactive) | 4.41 µM (inactive) | 4.91 µM (inactive) | 3.56 µM (inactive) | 1.48 µM (inactive) | 1.12 µM (active) | 3.21 µM (inactive) | 3.05 µM (inactive) | 15.1 µM (inactive) | – | 2.86 µM (inactive) | – | 8.34 µM (inactive) | 2.35 µM (inactive) | – |
| CC1(C)CC(C2CC(C)(C)CC(C)(C)[C@H]2O)[C@@H](O)C(C)(C)C1 (some centres undefined) | > 100 µM (inactive) | > 100 µM (inactive) | > 10 µM (inactive) | > 100 µM (inactive) | > 100 µM (inactive) | > 100 µM (inactive) | > 100 µM (inactive) | > 100 µM (inactive) | > 100 µM (inactive) | > 100 µM (inactive) | > 100 µM (inactive) | – | – | > 100 µM (inactive) | > 100 µM (inactive) | > 100 µM (inactive) | > 100 µM (inactive) | > 100 µM (inactive) |
| CCOc1ccc(NC(=O)C(=O)CC(=O)C2=C(C)Nc3ccccc3S2)cc1 | > 50 µM (inactive) | – | > 50 µM (inactive) | > 50 µM (inactive) | > 50 µM (inactive) | > 50 µM (inactive) | > 50 µM (inactive) | > 50 µM (inactive) | > 50 µM (inactive) | > 50 µM (inactive) | > 50 µM (inactive) | > 50 µM (inactive) | > 50 µM (inactive) | > 50 µM (inactive) | > 50 µM (inactive) | > 50 µM (inactive) | > 50 µM (inactive) | > 50 µM (inactive) |
| CC1=C(/C(C)=N/NC(=O)c2ccccc2O)C(C)C(/C(C)=N/NC(=O)c2ccccc2O)=C(C)N1 | 18.8 µM (inactive) | 5.04 µM (inactive) | 25.1 µM (inactive) | 12.2 µM (inactive) | 18.5 µM (inactive) | 31.4 µM (inactive) | 10.6 µM (inactive) | 18.3 µM (inactive) | 16.8 µM (inactive) | – | 13 µM (inactive) | 24.2 µM (inactive) | 28.1 µM (inactive) | 42.3 µM (inactive) | 38.1 µM (inactive) | 14.7 µM (inactive) | 6.5 µM (inactive) | – |
| CCCCCCCCCCCCCCCCCCOCC(C[N+]1(C)CCC(O)CC1)OCC (centres undefined) | 3.92 µM (inactive) | 1.79 µM (inactive) | 4.23 µM (inactive) | 3.85 µM (inactive) | 4.18 µM (inactive) | 1.84 µM (inactive) | 5.13 µM (inactive) | – | 4.2 µM (inactive) | 12.7 µM (inactive) | 2.88 µM (inactive) | – | 5.65 µM (inactive) | 3.37 µM (inactive) | 2.92 µM (inactive) | 13.8 µM (inactive) | 5.27 µM (inactive) | 2.77 µM (inactive) |
| CC1OC(OC23C(=O)CC(C)(O)CC2(O)C=CC2=C3C(=O)c3ccc(C4CC(OC5CCC(OC6CC(O)C(O)C(C)O6)C(C)O5)C(O)C(C)O4)c(O)c3C2=O)CCC1O (centres undefined) | 21.6 µM (inactive) and 17.7 µM (inactive) | 4.42 µM (inactive) and 6.03 µM (inactive) | 27 µM (inactive) and 21.5 µM (inactive) | – | 17.4 µM (inactive) and 15.8 µM (inactive) | 17.5 µM (inactive) and 14.4 µM (inactive) | 16.5 µM (inactive) and 16.4 µM (inactive) | – | – | 13.9 µM (inactive) and 16.2 µM (inactive) | 16.4 µM (inactive) and 18.5 µM (inactive) | 19.1 µM (inactive) and 20.6 µM (inactive) | 19.1 µM (inactive) and 19.8 µM (inactive) | 12.8 µM (inactive) and 19.5 µM (inactive) | 28.1 µM (inactive) and 17.9 µM (inactive) | 18.7 µM (inactive) and 17.7 µM (inactive) | 13.8 µM (inactive) and 16.3 µM (inactive) | 13.2 µM (inactive) and 10 µM (inactive) |
| C/C(CC(=O)CCC(=O)Nc1cccc(C(F)(F)F)c1)=N\NC(=O)NN | > 100 µM (inactive) | > 100 µM (inactive) | > 100 µM (inactive) | > 100 µM (inactive) | > 100 µM (inactive) | > 100 µM (inactive) | > 100 µM (inactive) | – | > 100 µM (inactive) | > 100 µM (inactive) | > 100 µM (inactive) | > 100 µM (inactive) | > 100 µM (inactive) | > 100 µM (inactive) | > 100 µM (inactive) | > 100 µM (inactive) | > 100 µM (inactive) | > 100 µM (inactive) |
| NC(Cc1ccccc1)C(=O)OCN1C(=O)C2C3C=CC(C2C1=O)C1C2C(=O)N(COC(=O)C(N)Cc4ccccc4)C(=O)C2C31 (centres undefined) | 49.3 µM (inactive) | 23.7 µM (inactive) | > 100 µM (inactive) | 33 µM (inactive) | 21.1 µM (inactive) | 21.3 µM (inactive) | 35.6 µM (inactive) | 21.4 µM (inactive) | 23.7 µM (inactive) | – | 20.2 µM (inactive) | 47 µM (inactive) | – | 33.2 µM (inactive) | 50.2 µM (inactive) | > 100 µM (inactive) | 23 µM (inactive) | 27.2 µM (inactive) |
